{"source": "patent US20220259302A1", "about": "“METHODS AND COMPOSITIONS FOR THE IMPROVEMENT OF LYSOSOMAL FUNCTION AND TREATMENT OF NEURODEGENERATIVE DISEASE” (VANDERBILT UNIVERSITY, priority 2017, published 2022)", "key": {"Nox2, Nox4 and p22phox": {"tested_on": "Nox2, Nox4 and p22phox", "experiment": "Nox induction in brain of mice injected with IL-6 (qRT-PCR, Western blot, immunostaining)", "assay_type": "in vivo, mouse", "conditions": "4 month and 24 month-old C57Bl/6 mice, IL-6 5 μg/kg on two consecutive days", "description": "These are the first data showing that inhibiting Nox activity can improve lysosome function in brain in vivo. […] Based on the observation herein that IL-6 is responsible for Nox2 induction in aging brain, and thus here, it is determined whether IL-6 mediates lysosome dysfunction. […] have a targeted deletion of Stat3 in neurons, and pharmacological inhibition of Nox-derived superoxide production can be used to test each of these possibilities. […] This increase occurred not only in microglia, but cortical and hippocampal neurons, and in synaptosomes. To confirm anti-Nox2 Ab specificity, slices and tissue from gp91phox−/− (Nox2−/−) mice were always included as controls."}, "mouse cortical cultures": {"tested_on": "mouse cortical cultures", "experiment": "lysosome degradation of proteins in mouse cortical cultures exposed to IL-6", "assay_type": "cell-based", "description": "Also, IL-6 can induce expression of inflammatory mediators, including TNFα, IL-6, IL-1β, Nox2 and Nox4, through both canonical pTyr-Stat3 transcription, and through noncanonical Stat3 NFκB transcription. Here, primary mouse cultures can be prepared on coverslip dishes as described and treated with IL-6 (10 ng/ml and 100 ng/ml) or a vehicle controls (media), daily for 4 days. Bafilomycin (100 nM) can be included in some dishes as a positive control for direct v-ATPase inhibition. Cultures can be fixed with 4% paraformaldehyde (PFA), and immunostained. Based on the data, accumulation of large lamp1 and p62-positive lysosomes in IL-6 and BAF treated cells can be observed. To then assess the role of redox effects on the v-ATPase, cultures can be co-treated with one of three antioxidants, TEMPOL (general radical scavenging), the C3 compound (catalytic superoxide dismutase, to reduce Nox-derived superoxide, regardless of isoform(s) which are contributing), and N-acetyl cysteine (to increase glutathione levels). When the v-ATPase is inhibited through its redox site, antioxidant treatment can prevent accumulation of undigested contents (p62, lamp1), and prevent enlargement of lysosomes. […]"}, "lysosomal v-ATPase": {"target": "lysosomal v-ATPase (Homo sapiens, UniProt P27449)", "sequence (P27449 whole entry)": "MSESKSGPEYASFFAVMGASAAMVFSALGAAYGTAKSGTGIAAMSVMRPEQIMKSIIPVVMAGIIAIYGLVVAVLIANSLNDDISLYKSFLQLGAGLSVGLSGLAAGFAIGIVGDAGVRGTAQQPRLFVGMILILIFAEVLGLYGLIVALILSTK", "sequence (P38606 whole entry partner)": "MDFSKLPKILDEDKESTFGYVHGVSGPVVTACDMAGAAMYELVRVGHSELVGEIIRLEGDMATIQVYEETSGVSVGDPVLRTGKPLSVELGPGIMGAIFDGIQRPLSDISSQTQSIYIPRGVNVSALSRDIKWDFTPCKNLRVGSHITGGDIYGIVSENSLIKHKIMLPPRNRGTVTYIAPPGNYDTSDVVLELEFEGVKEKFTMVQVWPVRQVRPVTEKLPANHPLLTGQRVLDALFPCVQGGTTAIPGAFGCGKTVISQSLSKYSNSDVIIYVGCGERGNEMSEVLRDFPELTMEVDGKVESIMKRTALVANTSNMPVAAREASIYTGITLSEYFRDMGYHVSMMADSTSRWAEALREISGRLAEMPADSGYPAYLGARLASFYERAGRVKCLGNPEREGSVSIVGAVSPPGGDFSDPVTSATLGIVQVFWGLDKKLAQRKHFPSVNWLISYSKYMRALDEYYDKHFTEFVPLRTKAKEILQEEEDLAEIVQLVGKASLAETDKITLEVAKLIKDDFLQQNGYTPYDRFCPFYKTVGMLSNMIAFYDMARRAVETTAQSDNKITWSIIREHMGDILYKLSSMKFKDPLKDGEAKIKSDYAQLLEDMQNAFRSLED", "conditions": "direct inhibition of lysosome acidification; cited from earlier work"}, "[1]": {"tested_on": "lamp1-positive lysosomes in neurons", "experiment": "intracellular lysosome size in neurons of aged mice (lamp1 and CatD immunostaining)", "assay_type": "in vivo, mouse", "conditions": "aged mice treated with apocynin compared to water", "text": "Brain sections from 5 month and 20 month old female mice were immunostained with antibodies against lamp1 and parvalbumin (PV), chosen to allow lysosomes in individual neurons to be analyzed. In old versus young animals, lamp1-labeled lysosomes are larger in both PV neurons as well as surrounding pyramidal neurons. Lysosomes in PV neurons were quantified in 1 μm thick optical sections with ImageJ using Analyze Particles function; n=8 young, n=7 old. *p<0.001, Mann-Whitney Rank Sum test.\nMice were treated with apocynin in drinking water (initial dose 5 mg/kg and then ramping up to 100 mg/kg) beginning at 12 months old for 5 months. […]\nAn antigen retrieval method was performed on the sections for most antigens by heating in 10 mM citrate buffer (pH 6.0) for 10 minutes at 90° C. […] With HRP-conjugated secondary antibodies, fluorescence was developed with fluorescein or cyanine 3 TSA amplification systems. […]\nImages were captured using Zeiss LSM 510 or LSM 810 multiphoton laser confocal microscopes. […] Images were then analyzed and processed using Metamorph or Fiji software. To quantify the clusters of p62-containing aggregates, images were taken for 6 hippocampal regions from three sections per mouse, with 4 mice for each group. Hippocampal regions were divided into different subregions, and p62 clusters were counted. […]"}, "[2]": {"tested_on": "p62-positive aggregates in hippocampus", "experiment": "p62-positive aggregates in hippocampus of aging mice after long-term treatment in drinking water", "assay_type": "in vivo, mouse", "description": "Female C57BL6 mice received apocynin (50 mg/kg) or C3 (1 mg/kg/day) in their water from 12-17 mos of age, then perfused. Fixed brain were sectioned, and immunostained for p62. Confocal images were analyzed for 6 hippocampi/three sections per mouse, 4 mice per group. To quantify the p62-containing aggregates, aggregates were individually circled in the depicted region by a blinded investigator, and aggregate areas measured using ImageJ. Areas covered by aggregates, and number of clusters, are shown. Mean±SEM, *p<0.05, ***p<0.001, Mann-Whitney Rank Sum test. Animal studies were approved by the Animal Care Program at the University of California, San Diego, and Vanderbilt University Medical Center and are in accordance with the PHS Guide for the Care and Use of Laboratory Animals, USDA Regulations, and the AVMA Panel on Euthanasia. Young (3 to 5 month) and old (17 to 27 month) C57BL/6 mice, Tam-Thy1-YFP-Crc, tdTomato or 24 month old GFAP/GFP transgenic mice (JAX, 010835) were used for experiments. Lines which have the Tam-Thy1-YFP-Cre express both the Cre recombinase and YFP under control of the Thy1 promoter, which drives expression in a majority of hippocampal and cortical excitatory neurons, but not inhibitory neurons. Tam-Thy1-YFP-Cre:Stat3flox/flox (TF) mice have been generated, and have also been crossed with the Rosa26-tdTomato reporter mouse line to produce Tam-Thy1-YFP-Cre:Stat3flox/flox:tdTom (TFTD) mice. These reporter mice will express tdTom fluorescence in response to tamoxifen. […] The sections were kept in 30% sucrose, 30% ethylene glycol, and 1% PVP-40 at −20° C. until they were ready to be processed for immunostaining. […] With HRP-conjugated secondary antibodies, fluorescence was developed with fluorescein or cyanine 3 TSA amplification systems. […] Images were then analyzed and processed using Metamorph or Fiji software. To quantify the clusters of p62-containing aggregates, images were taken for 6 hippocampal regions from three sections per mouse, with 4 mice for each group. […]"}}, "note": "“Also recorded” adds a separate entry of the source.", "data": [{"compound": "IL-6: inflammatory cytokine interleukin-6", "values": [{"measurement": "induction of Nox2, Nox4 and p22phox in brain", "setting": "Nox2, Nox4 and p22phox", "value": "induction of Nox2, Nox4 and p22phox"}, {"measurement": "lysosome degradation of proteins, including p62", "setting": "mouse cortical cultures", "value": "impairs lysosome degradation of proteins"}]}, {"compound": "CO/C1=C\\C(C)=C\\[C@@H](C)[C@@H](O)[C@@H](C)C/C(C)=C/C=C/[C@H](OC)[C@@H]([C@@H](C)[C@@H](O)[C@H](C)[C@@]2(O)C[C@@H](O)[C@H](C)[C@@H](C(C)C)O2)OC1=O", "note": "[bafilomycin]", "values": [{"measurement": "lysosome size", "setting": "lysosomal v-ATPase", "value": "rapidly increases lysosome size within hours"}]}, {"compound": "COc1cc(C(C)=O)ccc1O", "note": "[apocynin]", "values": [{"measurement": "size of lysosomes in neurons (lamp1 and CatD immunostaining)", "setting": "[1]", "value": "significant normalization (reduction) of intracellular lysosome size; also recorded: significantly reduced the size of lysosomes"}, {"measurement": "cargo clearance", "setting": "[2]; apocynin 100 mg/kg/day, as in FIG. 5", "value": "improved cargo clearance"}, {"measurement": "accumulation of p62 aggregates (number and size of p62-positive aggregates) in hippocampus", "setting": "[2]; female C57BL6 mice, in drinking water from 12-17 mos of age, apocynin 50 mg/kg/day, C3 1 mg/kg/day", "value": "reduction of both the number, and size of p62-positive aggregates; also recorded: reduces hippocampal aggregates; also recorded: lessons the accumulation of p62 aggregates"}, {"measurement": "undegraded lysosome material throughout brain", "setting": "[2]; mice treated with apocynin (FIG. 5)", "value": "robust and highly significant reduction in undegraded lysosome material throughout brain"}]}]}
